Experiments:
PDE-4B transcript = assay: Northern analysis of PDE-4B transcript in cultured CLL cells; assay type: cell-based, human; conditions: 10 uMol/L, six hour culture period
Procedure: RNA was isolated from CLL or whole mononuclear cells using Ultraspec reagent (Biotecx, Houston, Tex.). cDNA was synthesized from 10 ug of total RNA using oligo d(T) primers and Maloney murine leukemia virus reverse transcriptase in a final volume of 40 uL (Stratagene, La Jolla, Calif.). One mL of the first strand cDNA product was then used as template for PCR amplification with AmpliTaq DNA polymerase (Roche Molecular Systems, Branchburg, N.J.) by 40 thermocycles of 94° C. for 1 minute, 600° C. for 1 minute and 72° C. for 1 minute. […] For hybridization to Northern blots, these PCR products were subcloned into a plasmid vector (pCRII, Invitrogen, Carlsbad, Calif.) and subsequently utilized for PCR-based amplification of a32P dATP-labelled probes.
RNA was isolated from 20 million CLL cells immediately after cell purification (CT), or after 6 hours culture in media alone (6 Hr) or with addition of 10 uMol/L rolipram (Roli). Equal loading and transfer of RNA was confirmed by hybridization with an actin probe as shown.

CLL cells [1] = assay: cAMP assay (RIA) in CLL cells; assay type: cell-based, human; conditions: two hours; used alone and combined with forskolin
Procedure: (§1) One million cells in 1 mL were treated for two hours with or without drugs. 0.8 mL of cells were pelleted by spinning at 4,000 rpm (RCF=1,310) in microcentrifuge tube. After discarding 0.7 mL, 400 uL of ethanol was added, vortexed and left on ice for five minutes. Particulate cell debris was removed by centrifugation at 14,000 rpm (RCF=16,000). The supernatant was stored at −20° C. until the day of assay, at which time it was dried in a Speedivac (Savant, Farmingdale, N.Y.) to a volume of 50 uL. After ten-fold dilution in 10 mMol/L Tris pH 8.0, 1 mMol/L EDTA, the cAMP sample was analyzed for cAMP concentration using a cAMP RIA kit (NEN, Boston, Mass.) according to the manufacturer's instructions using the nonacetylated protocol.
In this example, it was determined what role type 1 and type 4 PDE activity might play in the catabolism of cyclic nucleotides in CLL cells. cAMP levels were measured after culturing leukemic cells with varying concentrations of PDE-isoform specific inhibitors, either alone or in conjunction with an activator of adenylate cyclase, the diterpene forskolin. Specifically, one million freshly isolated cells were incubated with the indicated drugs for two hours prior to analysis of cAMP in cell lysates using a radioimmunoassay. The results are shown in FIG. 4 and the data are the mean of three individually assayed culture wells.

CD19+ B cells = assay: cAMP assay (RIA) in CD19+ B cells; assay type: cell-based, human; conditions: at two hours; unstimulated or anti-Ig stimulated
Procedure: as §1
(§2) For each of the four cell populations, two or six hours after drug treatment, cAMP levels were higher for rolipram/forskolin-treated cells than for forskolin only treated cells (test: one tailed significance level<0.05) (FIG. 9).

CLL cells [2] = assay: DNA ladder gel assay; assay type: cell-based, human; conditions: 72 hours; 10 uMol/L rolipram, 40 uMol/L forskolin
Procedure: 10 million purified CLL cells were harvested by centrifugation following exposure to drugs during a 72 hour tissue culture incubation. Cells were lysed in 0.5 mL of 20 mMol/L Tris (pH 7.4), 0.4 mMol/L EDTA, 0.25% Triton X. After 15 minutes of incubation at room temperature, nuclei were removed by centrifugation at 14,000 rpm (RCF=16,000). The supernatant was transferred to a new tube and soluble DNA precipitated overnight at −20° C. following the addition of […] of 5 Mol/L NaCl and […] of isopropanol. After centrifugation at 14000 rpm for 10 minutes, followed by a 70% ethanol wash, the pellet was resuspended in 20 uL of 10 mMol/L Tris (pH 8.0), 1 mMol/L EDTA, 0.1 mg/mL RNase and incubated at 37° C. for 30 minutes prior to electrophoresis on 1.6% TBE agarose gels. DNA fragments were visualized by UV light after staining the gels with ethidium bromide.
Consequently, a study of the activity of type 4-specific PDE inhibitors as inducers of cAMP-mediated apoptosis in leukemic cells from CLL patients was carried out. CLL cells were incubated for 72 hours either alone or with 10 uMol/L rolipram, 40 uMol/L forskolin or both agents. We tested whether rolipram induces intemucleosomal DNA fragmentation characteristic of apoptosis by isolating soluble DNA from the leukemic cells with detergent treatment, then removing DNA from intact non-apoptotic nuclei by centrifugation. […]

[3] = system: CLL cells, resting or anti-Ig activated CD19+ cells, IL-2 supplemented WMC; assay: cAMP time course in four cell populations; assay type: cell-based, human; conditions: 24 hours; any of the four cell populations
Procedure: as §1, with “One million cells in 1 mL were treated for two hours with or without drugs.” left out
as §2

Type 4 enzymes = conditions: cited from earlier work

COc1ccc(C2CNC(=O)C2)cc1OC1CCCC1 (racemic) [rolipram, 4-(3-cyclopentyloxy-4-methoxyphenyl)-2-pyrrolidone]
PDE-4B transcript levels (PDE-4B transcript): significantly reduced this fall in PDE-4B transcript levels
CLL cAMP levels (CLL cells [1]): augmented CLL cAMP levels
cAMP levels in CD19+ B cells (CD19+ B cells): raised cAMP levels equivalently
internucleosomal DNA fragmentation (CLL cells [2]): pronounced internucleosomal DNA fragmentation
augmentation of forskolin-stimulated cAMP accumulation [3]: no longer significant rolipram-induced augmentation
IC50 (Type 4 enzymes): 1 µM
